Test results reported in US9856254B2, “Alkoxy substituted imidazoquinolines” (3M INNOVATIVE PROPERTIES COMPANY, priority 2003, dated 2018).

CCCn1c(COCC)nc2c(N)nc3ccc(OC(=O)N4CCOCC4)cc3c21 [Example 570, 4-Amino-2-(ethoxymethyl)-1-propyl-1H-imidazo[4,5-c]quinolin-8-yl morpholine-4-carboxylate]
melting point: 193 to 196 °C

CCCn1c(COCC)nc2c(N)nc3ccc(OCCN4CCCCCC4)cc3c21 [Example 571, 8-(2-Azepan-1-ylethoxy)-2-(ethoxymethyl)-1-propyl-1H-imidazo[4,5-c]quinolin-4-amine]
melting point: 146 to 148 °C

CCOCc1nc2c(N)nc3cc(OCC(=O)N4CCOCC4)ccc3c2n1CC(C)(C)O [Example 646, 1-[4-Amino-2-(ethoxymethyl)-7-(2-morpholin-4-yl-2-oxoethoxy)-1H-imidazo[4,5-c]quinolin-1-yl]-2-methylpropan-2-ol]
melting point: 209 to 211 °C

CCOCc1nc2c(N)nc3cc(OCCN4CCOCC4)ccc3c2n1CC(C)(C)O [Example 647, 1-[4-Amino-2-(ethoxymethyl)-7-(2-morpholin-4-ylethoxy)-1H-imidazo[4,5-c]quinolin-1-yl]-2-methylpropan-2-ol]
melting point: 161 to 163 °C

CCCn1c(COCC)nc2c(N)nc3cc(OCC(=O)N4CCOCC4)ccc3c21 [Example 648, 2-(Ethoxymethyl)-7-(2-morpholin-4-yl-2-oxoethoxy)-1-propyl-1H-imidazo[4,5-c]quinolin-4-amine]
melting point: 213 °C

CCCn1c(COCC)nc2c(N)nc3cc(OCCN4CCOCC4)ccc3c21 [Example 649, 2-(Ethoxymethyl)-7-(2-morpholin-4-ylethoxy)-1-propyl-1H-imidazo[4,5-c]quinolin-4-amine]
melting point: 191 to 192 °C

CCc1nc2c(N)nc3cc(OCCN)ccc3c2n1CC1CCOCC1 [Example 650, 7-(2-Aminoethoxy)-2-ethyl-1-(tetrahydro-2H-pyran-4-ylmethyl)-1H-imidazo[4,5-c]quinolin-4-amine]
melting point: 238 °C (dec.)

CCc1nc2c(N)nc3cc(OCCNC(=O)NC(C)C)ccc3c2n1CC1CCOCC1 [Example 651, N-(2-{[4-Amino-2-ethyl-1-(tetrahydro-2H-pyran-4-ylmethyl)-1H-imidazo[4,5-c]quinolin-7-yl]oxy}ethyl)-N′-isopropylurea]
melting point: 223 to 225 °C

CCc1nc2c(N)nc3cc(OCCNC(C)=O)ccc3c2n1CC1CCOCC1 [Example 652, N-(2-{[4-Amino-2-ethyl-1-(tetrahydro-2H-pyran-4-ylmethyl)-1H-imidazo[4,5-c]quinolin-7-yl]oxy}ethyl)acetamide]
melting point: 165 to 167 °C

CCOCc1nc2c(N)nc3cc(OCCN)ccc3c2n1CC(C)(C)O [Example 654, 1-[4-Amino-7-(2-aminoethoxy)-2-(ethoxymethyl)-1H-imidazo[4,5-c]quinolin-1-yl]-2-methylpropan-2-ol]
melting point: 163 to 165 °C

CCOCc1nc2c(N)nc3cc(OC4CCN(C(C)=O)CC4)ccc3c2n1CC(C)(C)O [Example 656, 1-[7-[(1-Acetylpiperidin-4-yl)oxy]-4-amino-2-(ethoxymethyl)-1H-imidazo[4,5-c]quinolin-1-yl]-2-methylpropan-2-ol]
melting point: 162 to 164 °C

CCCn1c(COC)nc2c(N)nc3ccc(OCCCN4CCN(c5ccccn5)CC4)cc3c21 [Example 657, 2-(Methoxymethyl)-1-propyl-8-[3-(4-pyridin-2-ylpiperazin-1-yl)propoxy]-1H-imidazo[4,5-c]quinolin-4-amine]
melting point: 196 to 197 °C
